Experiment [1] relates to HIV-1 (clinical paediatric strain RoJo or WeJo) in human PBMCs. Put plainly: Anti-HIV efficacy evaluation in fresh human PBMCs. Format: cell-based. The following applies: for IC50 / IC90: Human immunodeficiency virus 1, PBMC, 168 h, seven days following infection; for IC50: concentration inhibiting virus replication by 50%; for IC90: concentration inhibiting virus replication by 90%. On the procedure: Representative compounds of the present invention were tested for antiviral activity against HIV-1 in human peripheral blood mononuclear cells (PBMCs) using the clinical paediatric HIV strain RoJo or WeJo. PBMCs were cultured under conditions which promote cell survival and HIV replication. Antiviral activity was tested for from 6-9 log10 serial dilutions of a 100 μM compound stock solution in DMSO.
Fresh PBMCs, seronegative for HIV and HBV, were isolated from screened donors (Interstate Blood Bank, Inc. Memphis, Term.). Cells were pelleted/washed 2-3 times by low speed centrifugation and re-suspension in PBS to remove contaminating platelets. […] Banded PBMCs were gently aspirated from the resulting interface and subsequently washed with PBS by low speed centrifugation. After the final wash, cells were enumerated by trypan blue exclusion and re-suspended in RPMI 1640 supplemented with fetal bovine serum (FBS), and L-glutamine, Phytohemagglutinin (PHA-P, Sigma). The cells were allowed to incubate at 37° C. After incubation, PBMCs were centrifuged and resuspended in RPMI 1640 with FBS, L-glutamine, penicillin, streptomycin, gentamycin, and recombinant human IL-2 (R&D Systems, Inc). IL-2 is included in the culture medium to maintain the cell division initiated by the PHA mitogenic stimulation. PBMCs were maintained in this with bi-weekly medium changes until used in the assay protocol. Cells were kept in culture for a maximum of two weeks before being deemed too old for use in assays and discarded. Monocytes were depleted from the culture as the result of adherence to the tissue culture flask.
For the standard PBMC assay, PHA-P stimulated cells from at least two normal donors were pooled, diluted and plated in the interior wells of a 96-well round bottom microplate. Pooling of mononuclear cells from more than one donor was used to minimise the variability observed between individual donors, which results from quantitative and qualitative differences in HIV infection and overall response to the PHA and IL-2 of primary lymphocyte populations. Each plate contained virus/cell control wells (cells plus virus), experimental wells (drug plus cells plus virus) and compound control wells (drug plus media […], necessary for MTS monitoring of cytotoxicity). Since HIV-1 is not cytopathic to PBMCs, this allows the use of the same assay plate for both antiviral activity and cytotoxicity measurements. Test drug dilutions were prepared in microtiter tubes and each concentration was placed in appropriate wells using the standard format. A predetermined dilution of virus stock was placed in each test well (final MOI≅0.1). The PBMC cultures were maintained for seven days following infection at 37° C., 5% CO2. After this period, cell-free supernatant samples were collected for analysis of reverse transcriptase activity and/or HIV p24 content. Following removal of supernatant samples, compound cytotoxicity was measured by addition of MTS to the plates for determination of cell viability. Wells were also examined microscopically and any abnormalities were noted.
Reverse transcriptase activity assay: A microtiter plate-based reverse transcriptase (RT) reaction was utilised (Buckheit et al., AIDS Research and Human Retroviruses 7:295-302, 1991). Tritiated thymidine triphosphate (^3H-TTP, 80 Ci/mmol, NEN) was received in 1:1 dH2O:Ethanol at 1 mCi/mL. Poly rA:oligo dT template:primer (Pharmacia) was prepared as a stock solution, followed by aliquoting and storage at −20° C. The RT reaction buffer was prepared fresh on a daily basis. The final reaction mixture was prepared by combining ^3H-TTP, dH2O, poly rA:oligo dT stock and reaction buffer. This reaction mixture was placed in a round bottom microtiter plate and supernatant containing virus was added and mixed. The plate was incubated at 37° C. for 60 minutes. Following incubation, the reaction volume was spotted onto DE81 filter-mats (Wallac), in a sodium phosphate buffer or 2×SSC (Life Technologies). […]

Experiment [2] concerns the target SAPK2a (stress-activated protein kinase 2a) (Homo sapiens, UniProt Q16539). Put plainly: Kinase assay SAPK2a. The class given is biochemical. The following applies: Table 3 selectivity panel; read-out: Kinase specificity IC50 SAPK2a. The protocol: Kinase assays. […] This was achieved by measurement of incorporation of radioactive phosphate from ATP into appropriate polypeptide substrates. Recombinant protein kinases and kinase complexes were produced or obtained commercially. Assays were performed using 96-well plates and appropriate assay buffers (typically 25 mM β-glycerophosphate, 20 mM MOPS, 5 mM EGTA, 1 mM DTT, 1 mM […], pH 7.4), into which were added 2-4 μg of active enzyme with appropriate substrates. The reactions were initiated by addition of Mg/ATP mix (15 mM MgCl2+100 μM ATP with 30-50 kBq per well of [γ-^32P]-ATP) and mixtures incubated as required at 30° C. Reactions were stopped on ice, followed by filtration through p81 filterplates or GF/C filterplates (Whatman Polyfiltronics, Kent, UK). After washing 3 times with 75 mM aq orthophosphoric acid, plates were dried, scintillant added and incorporated radioactivity measured in a scintillation counter (TopCount, Packard Instruments, Pangbourne, Berks, UK). Compounds for kinase assay were made-up as 10 mM stocks in DMSO and diluted into 10% DMSO inrassay buffer.

In a further experiment the test system is H1299. Description: 72-h MTT cytotoxicity assay H1299. The class given is cell-based. The following applies: Homo sapiens, NCI-H1299, 72 h; Table 5; Lung. The protocol:
(§1) MTT cytotoxicity assay. […] Standard 72-h MTT (thiazolyl blue; 3-[4,5-dimethylthiazol-2-yl]-2,5-diphenyltetrazolium bromide) assays were performed (Haselsberger, K.; Peterson, D. C.; Thomas, D. G.; Darling, J. L. Anti Cancer Drugs 1996, 7, 331-8; Loveland, B. E.; Johns, T. G.; Mackay, I. R.; Vaillant, F.; Wang, Z. X.; Hertzog, P. J. Biochemistry International 1992, 27, 501-10). In short: cells were seeded into 96-well plates according to doubling time and incubated overnight at 37° C. Test compounds were made up in DMSO and a 1/3 dilution series prepared in 100 μL cell media, added to cells (in triplicates) and incubated for 72 ho at 37° C. MTT was made up as a stock of 5 mg/mL in cell media and filter-sterilised. Media was removed from cells followed by a wash with 200 μL PBS.
(§2) MTT solution was then added at 20 μL per well and incubated in the dark at 37° C. for 4 h. MTT solution was removed and cells again washed with 200 μL PBS. MTT dye was solubilised with 200 μL per well of DMSO with agitation.
A general note: Formazan colour is commonly taken as a measure of viable cells.

The test system of another experiment is K562. Description: 72-h MTT cytotoxicity assay K562. Format: cell-based. The following applies: Homo sapiens, K562, 72 h; Table 5; Chronic myelogenous leukaemia. On the procedure:
as §1, §2

For a further experiment, the system named is DU-145. Put plainly: 72-h MTT cytotoxicity assay DU-145. The following applies: Homo sapiens, DU-145, 72 h; Table 5; Prostate. Format: cell-based. The protocol: as §1, §2
The test system of another experiment is Hs27. Description: 72-h MTT cytotoxicity assay Hs27. The class given is cell-based. The following applies: Homo sapiens, HS27, 72 h; Table 5; Foreskin fibroblast (non-transformed). The protocol:
as §1, §2

The next experiment relates to SKUT-1B. Description: 72-h MTT cytotoxicity assay SKUT-1B. The following applies: Homo sapiens, Skut1B, Table 5, Leiomyosarcoma. Format: cell-based. On the procedure: as §1, §2

The values that follow come from patent US7432260B2, “Pyrimidine compounds” (Cyclacel Limted, priority 2002, dated 2008).

Sequence of SAPK2a (stress-activated protein kinase 2a) (Q16539 whole entry, species assumed): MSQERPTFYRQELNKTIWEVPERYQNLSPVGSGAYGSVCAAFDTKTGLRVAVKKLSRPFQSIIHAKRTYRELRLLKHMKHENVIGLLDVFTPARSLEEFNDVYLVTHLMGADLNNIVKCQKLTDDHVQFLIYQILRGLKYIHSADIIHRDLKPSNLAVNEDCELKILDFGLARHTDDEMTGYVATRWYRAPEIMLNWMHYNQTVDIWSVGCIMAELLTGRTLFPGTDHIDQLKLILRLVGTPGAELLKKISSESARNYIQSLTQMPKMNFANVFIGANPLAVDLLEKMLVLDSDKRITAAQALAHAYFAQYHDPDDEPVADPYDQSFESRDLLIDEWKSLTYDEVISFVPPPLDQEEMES

In general, IC50 refers to the concentration needed to halve the response being measured. Broadly, the IC90 is the concentration needed for an effect of 90%. A high value points to a need for much substance. `CNc1nc(C)c(-c2ccnc(Nc3ccc(N4CCOCC4)cc3)n2)s1` [Compound 3, [4-(2-N-Methylamino-4-methyl-thiazol-5-yl)-pyrimidin-2-yl]-(4-morpholinophenyl)-amine]: in experiment [1], inhibition was half-maximal at 297 nM (IC50) and the IC90 is 679 nM. In addition, the concentration for half-maximal inhibition (IC50) in experiment [2] was more than 100000 nM.
As for `Cc1nc(N)sc1-c1ccnc(Nc2ccc(N3CCOCC3)cc2)n1` [Compound 1, [4-(2-Amino-4-methyl-thiazol-5-yl)-pyrimidin-2-yl]-(4-morpholin-4-yl-phenyl)-amine], the IC50 was 900 nM in the experiment on H1299; 3800 nM with K562; 1500 nM in the experiment on DU-145; 1330 nM in experiment [1]; more than 5000 nM in the experiment on Hs27; more than 100000 nM in experiment [2]. Also, the “anti-viral effect in cell based assays” value in experiment [1] was “particularly effective anti-viral agent”. The same compound had an IC90 in experiment [1] of 2640 nM.
Take `CNc1nc(C)c(-c2ccnc(Nc3ccc(N4CCN(Cc5ccccc5)CC4)cc3)n2)s1` [Compound 11, [4-(4-Benzyl-piperazin-1-yl)-phenyl]-[4-(4-methyl-2-methylamino-thiazol-5-yl)-pyrimidin-2-yl]-amine]: the half-maximal inhibitory concentration (IC50) in the experiment on H1299 is 1100 nM; with K562 it was 2100 nM; with DU-145, 1000 nM; with SKUT-1B, 300 nM; with Hs27, 19000 nM; in experiment [2] it was more than 100000 nM.
In experiment [1], `CCNc1nc(C)c(-c2ccnc(Nc3ccc(N4CCOCC4)cc3)n2)s1` [Compound 4, [4-(2-Ethylamino-4-methyl-thiazol-5-yl)-pyrimidin-2-yl]-(4-morpholin-4-yl-phenyl)-amine] returned an IC50 of 166 nM and an IC90 of 295 nM.
With `Cc1nc(NC(=O)[C@H](N)[C@@H](C)O)sc1-c1ccnc(Nc2cccc([N+](=O)[O-])c2)n1` [Compound 15, (2R,3R)-2-Amino-3-hydroxy-N-{4-methyl-5-[2-(3-nitro-phenylamino)-pyrimidin-4-yl]-thiazol-2-yl}-butyramide], the IC50 with H1299 was 1300 nM; in the experiment with K562 it was 4600 nM; in the experiment with DU-145, 1300 nM; in experiment [1], 124 nM; in the experiment with SKUT-1B it was 200 nM; with Hs27, 1700 nM. The IC50 in experiment [2] was more than 100000 nM. In experiment [1], this compound showed an IC90 of 385 nM.
For the compound `Cc1nc(C)c(-c2ccnc(Nc3ccc(NC(=O)CN4CCCC4)cc3)n2)s1` [Compound 53, N-{4-[4-(2,4-Dimethyl-thiazol-5-yl)-pyrimidin-2-ylamino]-phenyl}-2-pyrrolidin-1-yl-acetamide], in experiment [1], the IC50 stood at 812 nM and the 90% effect level (IC90) was put at 871 nM.
For `CC[C@@H](N)C(=O)Nc1nc(C)c(-c2ccnc(Nc3cccc([N+](=O)[O-])c3)n2)s1` [Compound 16, (2R)-2-Amino-N-{4-methyl-5-[2-(3-nitro-phenylamino)-pyrimidin-4-yl]-thiazol-2-yl}-butyramide], the IC50 is 600 nM in the experiment on H1299; 2500 nM in the experiment with K562; 600 nM in the experiment with DU-145; 100 nM in the experiment with SKUT-1B; more than 5000 nM in the experiment on Hs27; more than 100000 nM in experiment [2].
